Assay [1] has as its target CDK6 (Homo sapiens (Human), UniProt Q00534). The experiment in a line: Phospho-Serine 795 Rb ELISA assay in MV4-11 cells. Type of assay: cell-based. Particulars: treated overnight, phospho-Ser795 Rb, read-out: CDK6 pRB S795 ELISA MV4-11 cells IC50. As to the method: (§1) JEKO-1 or MV4-11 cells were seeded at 15,000 or 20,000 cells per well, respectively, in 100 μL growth media and allowed to incubate at 37° C. with 5% CO2 overnight. The following day, compounds were serially diluted from a 10 mM top dose for an 11-point 3-fold dilution curve in DMSO. Compounds were intermediately diluted 1:200 into growth media prior to diluting 1:5 on cells for final concentration 10 μM to 0.1 nM in 0.1% DMSO on cells. JEKO-1 and MV4-11 cells were treated were treated overnight, at 37° C. with 5% CO2. Cells were lysed in 100 μL/well CST lysis buffer on ice and transferred to pre-coated and blocked anti-phospho-Ser795 Rb ELISA plates for overnight incubation at 4° C. Plates were washed to remove residual, unbound cellular proteins and total Rb detection antibody added for 90 minutes at 37° C. Following wash to remove unbound total Rb antibody, the HRP tagged antibody was allowed to bind for 30 minutes at 37° C. Following wash to remove unbound HRP antibody, Glo Substrate Reagent was added and incubated protected from light for 5 to 10 minutes. Plates were read in luminescence mode and IC50 values calculated.
(In general: In an ELISA, binding on a coated surface is turned into a signal by an enzyme label.)

Assay [2] deals with CDK4 (Homo sapiens (Human), UniProt P11802). The experiment in a line: Phospho-Serine 795 Rb ELISA assay in JEKO-1 cells. Type of assay: cell-based. Particulars: treated overnight, phospho-Ser795 Rb, read-out: CDK4 pRB S795 ELISA JEKO-1 cells IC50. As to the method:
Phospho-Serine 795 Rb ELISA Assays
as §1

Assay [3] has as its target CDK6/Cyclin D3 (Homo sapiens (Human), UniProt Q00534). The experiment in a line: CDK6/Cyclin D3 mobility shift assay. Type of assay: biochemical. To be noted: activated CDK6/Cyclin D3, 3.5 mM ATP, fit to Morrison equation; read-out: CDK6_D3 Ki. As for the experimental part:
CDK6/Cyclin D3 Mobility Shift Assay
The purpose of the CDK6/Cyclin D3 assay is to evaluate the inhibition (% inhibition, Kiapp and Ki values) in the presence of small molecule inhibitors by using a fluorescence based microfluidic mobility shift assay. […] The mobility shift assay electrophoretically separates the fluorescently labeled peptides (substrate and phosphorylated product) following the kinase reaction. Both substrate and product are measured and the ratio of these values is used to generate % conversion of substrate to product by the LabChip EZ Reader.
The reaction was stopped after 95 minutes by the addition of 50 μL of 30 mM EDTA. Ki determinations were made from a plot of the fractional velocity as a function of inhibitor concentration fit to the Morrison equation with the enzyme concentration as a variable.

For assay [4], the target named is CDK4/Cyclin D1 (Homo sapiens (Human), UniProt P11802). The experiment in a line: CDK4/Cyclin D1 mobility shift assay. In kind it is biochemical. Particulars: activated CDK4/Cyclin D1, 3.5 mM ATP, fit to Morrison equation; read-out: CDK4D1 Ki. As to the method:
Biological Assays and Data CDK4/Cyclin D1 Mobility Shift Assay
The purpose CDK4/Cyclin D1 assay is to evaluate the inhibition (% inhibition, Kiapp and Ki values) in the presence of small molecule inhibitors by using a fluorescence based microfluidic mobility shift assay. […] The mobility shift assay electrophoretically separates the fluorescently labeled peptides (substrate and phosphorylated product) following the kinase reaction. Both substrate and product are measured and the ratio of these values is used to generate % Conversion of substrate to product by the LabChip EZ Reader.
The reaction was stopped after 195 minutes by the addition of 50 μL of 30 mM EDTA. Ki determinations were made from a plot of the fractional velocity as a function of inhibitor concentration fit to the Morrison equation with the enzyme concentration as a variable.
For CDK4 and CDK6 mobility shift assays, see also Morrison, J. F. (1969) Kinetics of the reversible inhibition of enzyme-catalysed reactions by tight-binding inhibitors, Biochimica et biophysica acta 185, 269-286; and Murphy, D. J. (2004) Determination of accurate KI values for tight-binding enzyme inhibitors: an in silico study of experimental error and assay design, Analytical biochemistry 327, 61-67.

IC50 and Ki data for seven molecules are collected here from patent publication US11220494B2, “Cyclin dependent kinase inhibitors” (Pfizer Inc., priority 2018, dated 2022).

Sequence of CDK4 (P11802 2-303): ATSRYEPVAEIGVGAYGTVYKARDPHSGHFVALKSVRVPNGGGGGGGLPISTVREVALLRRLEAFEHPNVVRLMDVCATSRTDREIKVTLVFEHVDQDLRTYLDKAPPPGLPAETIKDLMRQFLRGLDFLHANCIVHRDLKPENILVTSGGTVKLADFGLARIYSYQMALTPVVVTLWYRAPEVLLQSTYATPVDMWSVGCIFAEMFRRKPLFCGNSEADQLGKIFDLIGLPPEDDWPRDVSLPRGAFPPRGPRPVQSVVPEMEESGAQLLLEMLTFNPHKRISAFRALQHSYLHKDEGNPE
Sequence of CDK4 (P24385 whole entry partner): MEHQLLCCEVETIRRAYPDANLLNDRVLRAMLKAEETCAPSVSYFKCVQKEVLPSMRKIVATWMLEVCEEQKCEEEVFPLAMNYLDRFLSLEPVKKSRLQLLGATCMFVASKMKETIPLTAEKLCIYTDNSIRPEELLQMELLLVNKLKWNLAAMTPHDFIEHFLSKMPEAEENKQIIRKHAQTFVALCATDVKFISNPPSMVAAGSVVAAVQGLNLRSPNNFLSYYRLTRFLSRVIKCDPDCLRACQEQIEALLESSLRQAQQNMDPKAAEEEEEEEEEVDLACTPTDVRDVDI
Sequence of CDK6 (Q00534 whole entry): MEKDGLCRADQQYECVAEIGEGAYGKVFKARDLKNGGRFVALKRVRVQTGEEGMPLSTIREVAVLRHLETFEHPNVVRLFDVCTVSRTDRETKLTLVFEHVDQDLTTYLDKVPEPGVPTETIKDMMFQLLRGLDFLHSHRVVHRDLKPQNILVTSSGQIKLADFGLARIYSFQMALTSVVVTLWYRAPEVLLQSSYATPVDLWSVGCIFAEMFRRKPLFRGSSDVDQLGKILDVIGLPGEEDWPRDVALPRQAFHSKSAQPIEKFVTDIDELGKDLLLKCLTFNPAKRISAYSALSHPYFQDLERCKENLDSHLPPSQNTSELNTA
Sequence of CDK6 (P30281 whole entry partner): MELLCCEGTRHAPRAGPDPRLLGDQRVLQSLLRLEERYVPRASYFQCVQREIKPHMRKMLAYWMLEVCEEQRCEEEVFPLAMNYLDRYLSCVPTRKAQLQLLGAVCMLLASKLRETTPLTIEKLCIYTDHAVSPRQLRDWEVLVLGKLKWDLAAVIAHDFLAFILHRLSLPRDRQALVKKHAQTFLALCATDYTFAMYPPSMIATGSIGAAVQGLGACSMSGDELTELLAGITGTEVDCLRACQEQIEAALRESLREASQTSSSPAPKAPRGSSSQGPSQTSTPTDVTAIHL
Sequence of CDK6/Cyclin D3 (Q00534 whole entry): as the sequence (Q00534 whole entry) above
Sequence of CDK6/Cyclin D3 (P30281 whole entry partner): as the sequence (P30281 whole entry partner) above
Sequence of CDK4/Cyclin D1 (P11802 whole entry): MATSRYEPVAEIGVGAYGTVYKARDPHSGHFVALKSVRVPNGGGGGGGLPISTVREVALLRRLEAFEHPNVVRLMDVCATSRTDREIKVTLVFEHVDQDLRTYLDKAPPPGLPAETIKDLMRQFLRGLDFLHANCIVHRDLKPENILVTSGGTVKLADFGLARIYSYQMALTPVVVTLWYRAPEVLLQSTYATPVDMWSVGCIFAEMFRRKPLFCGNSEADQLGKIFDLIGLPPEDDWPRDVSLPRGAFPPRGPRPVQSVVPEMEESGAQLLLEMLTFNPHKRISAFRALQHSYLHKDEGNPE
Sequence of CDK4/Cyclin D1 (P24385 whole entry partner): as the sequence (P24385 whole entry partner) above

One may read the IC50 as the point on the concentration scale where inhibition reaches its midpoint. The term Ki denotes a measure of affinity in units of concentration, obtained from inhibition or displacement. For `CC(C)c1c2cc(-c3nc(N[C@@H]4CCN(S(C)(=O)=O)C[C@H]4O)ncc3Cl)cc(F)c2nn1C` [Example A25], the IC50 in assay [1] stood at 30.6 nM; in assay [2] it was 13.3 nM. Moreover, in assay [3], the Ki amounted to 1.3 nM.
`CS(=O)(=O)N1CC[C@@H](Nc2ncc(Cl)c(-c3cc(F)c4ncn(C5CC5)c4c3)n2)[C@H](O)C1` [Example A15]: the figures for the inhibition constant (Ki) in assay [3] and in assay [4] were 2.4 nM and 0.3 nM, respectively.
In the case of `CC1(C)COCc2nc3c(F)cc(-c4nc(N[C@@H]5CCN(S(C)(=O)=O)C[C@H]5O)ncc4F)cc3n21` [Example A18], the IC50 in assay [1] is 77.2 nM; in assay [2], 25 nM. The Ki in assay [3] was 2.3 nM; in assay [4], 0.2 nM.
With `CCC1COCc2nc3c(F)cc(-c4nc(N[C@@H]5CCN(S(C)(=O)=O)C[C@H]5O)ncc4F)cc3n21` (some centres unmarked) [Example A17], the results for the IC50 in assay [1] and in assay [2] were 13.4 nM and 9.9 nM, respectively. In addition, the Ki in assay [3] was found to be 0.4 nM; in assay [4], 0.1 nM.
The corresponding values for `CC(C)n1c(C(C)(C)O)nc2c(F)cc(-c3nc(N[C@H]4CCOC[C@H]4O)ncc3Cl)cc21` [Example A35] are 967 nM, 124 nM, 58.9 nM and 1.5 nM.
`CS(=O)(=O)N1CC[C@@H](Nc2ncc(Cl)c(-c3cc(F)c4ncn(C5CCOC5)c4c3)n2)[C@H](O)C1` (some centres unmarked) [Example A14]: the inhibition constant (Ki) in assay [3] turned out to be 4.6 nM; in assay [4] it was 0.5 nM.
As for `CC(C)n1cnc2c(Cl)cc(-c3nc(N[C@@H]4CCN(S(C)(=O)=O)C[C@H]4O)ncc3Cl)cc21` [Example A16], the 50% inhibitory concentration (IC50) was 98.1 nM in assay [1] and 25.7 nM in assay [2]. The inhibitory constant (Ki) in assay [3] came to 2.7 nM; in assay [4], 0.2 nM.
